O=C(O)c1cccnc1Cl
solubility (mole fraction)
Conditions | 273.15 K | 278.15 K | 283.15 K | 288.15 K | 293.15 K | 298.15 K | 303.15 K | 308.15 K | 313.15 K
in 1,4-dioxane | – | – | – | 0.0088 | 0.0103 | 0.012 | 0.0136 | 0.0155 | 0.0176
in DMF | 0.124 | 0.149 | 0.175 | 0.2 | 0.228 | 0.26 | 0.291 | 0.327 | 0.367
in NMP | 0.206 | 0.235 | 0.265 | 0.295 | 0.328 | 0.36 | 0.397 | 0.437 | 0.478
in acetone | 0.00893 | 0.0103 | 0.0118 | 0.0133 | 0.0149 | 0.0166 | 0.0184 | 0.0205 | 0.0226
in acetonitrile | 0.00105 | 0.00137 | 0.00174 | 0.00214 | 0.00263 | 0.00324 | 0.00399 | – | –
in ethanol | 0.00286 | 0.00363 | 0.00461 | 0.00563 | 0.00676 | 0.00804 | 0.00953 | 0.0112 | 0.0129
in ethyl acetate | 0.0138 | 0.0163 | 0.0189 | 0.0218 | 0.0246 | 0.0276 | 0.0308 | 0.0344 | 0.0382
in isopropanol | 0.00368 | 0.00464 | 0.00574 | 0.00697 | 0.0083 | 0.00972 | 0.0113 | 0.013 | 0.0147
in methanol | 0.00227 | 0.00283 | 0.00347 | 0.00422 | 0.00505 | 0.00598 | 0.00696 | 0.00806 | 0.00927
in n-propanol | 0.00446 | 0.00546 | 0.00667 | 0.00792 | 0.00933 | 0.011 | 0.0125 | 0.0144 | 0.0162
in water | 9.1e-05 | 0.000104 | 0.00012 | 0.000136 | 0.000153 | 0.000171 | 0.000191 | 0.000216 | 0.000242

— BigSolDB 2.1
